Data as given in PubChem BioAssay (NCI).
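96-well plates; 48 h exposure; 5 concentrations. Endpoints by linear interpolation between flanking doses. Not reached: highest tested concentration assigned. At the GI50, growth is halved. TGI is the concentration that stops growth completely.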

What was measured:
Assay in all cases: NCI tumour cell line growth inhibition, 48 h
[1] = system: SN12C renal
[2] = system: UACC-62 melanoma
[3] = system: UACC-257 melanoma
[4] = system: IGROV1 ovarian
[5] = system: MDA-MB-435
[6] = system: NCI-H23 lung
[7] = system: OVCAR-8 ovarian
[8] = system: MALME-3M melanoma
[9] = system: SNB-75 CNS
[10] = system: M14 melanoma

SMILES	GI50 [1]	TGI [1]	GI50 [2]	TGI [2]	GI50 [3]	TGI [3]	GI50 [4]	TGI [4]	GI50 [5]	TGI [5]	GI50 [6]	TGI [6]	GI50 [7]	TGI [7]	GI50 [8]	TGI [8]	GI50 [9]	TGI [9]	GI50 [10]	TGI [10]
O=C(O)CN(CCN(CC(=O)O)CC(=O)O)CC(=O)O.[Mn+2]	> 100 µM	> 100 µM	> 100 µM	> 100 µM	> 100 µM	> 100 µM	> 100 µM	> 100 µM	> 100 µM	> 100 µM	> 100 µM	> 100 µM	> 100 µM	> 100 µM	> 100 µM	> 100 µM	> 100 µM	> 100 µM	> 100 µM	> 100 µM
CCCCCCCCCCCCCCNC(=O)Nc1ccc(Cl)c(Cl)c1	2.85 µM	> 100 µM	3.69 µM	> 100 µM	2.78 µM	11.3 µM	1.33 µM		2.82 µM	8.33 µM	2.86 µM	26.3 µM	3.16 µM	> 31.4 µM	1.39 µM	4.59 µM	1.98 µM	9.57 µM	2.89 µM	> 44.3 µM
CCCCCC/C=C\CCCCCCCCC(=O)c1cccc(OC)c1OC		> 100 µM		> 100 µM		> 100 µM		> 100 µM		> 100 µM		> 100 µM		> 100 µM		> 100 µM		> 100 µM		> 100 µM
Cc1noc(NC(=O)Nc2ccccc2F)c1C#N		> 48 µM		> 45.4 µM		> 51 µM		> 100 µM		> 100 µM		> 100 µM		> 100 µM		> 51.9 µM		> 100 µM		> 42.6 µM
NC(N)=NCCCC(NCc1c2ccccc2nc2ccccc12)C(=O)O (stereo unspecified)		> 100 µM		> 100 µM		> 88.6 µM		> 100 µM		> 100 µM		> 100 µM		> 86 µM		> 100 µM		> 100 µM		> 100 µM
CN1CCN(c2c(F)cc(NC3=C(Cl)C(=O)c4ncccc4C3=O)cc2F)CC1	3.22 µM	13.2 µM	14.8 µM	28 µM	1.68 µM	3.39 µM	2.92 µM	11.5 µM	1.84 µM	3.62 µM	11.8 µM	32 µM	8.82 µM	> 100 µM	1.59 µM	2.97 µM	10.9 µM	23.9 µM	4.34 µM	15.3 µM
N#CC(C#N)=C/C=C(\Sc1ccc(Cl)cc1)c1ccc(F)cc1	0.986 µM	7.26 µM	2.03 µM	10.3 µM	6.88 µM	14.7 µM	2.09 µM	12.3 µM	0.81 µM	2.91 µM	0.528 µM	2.05 µM	5.89 µM	12.7 µM	1.6 µM	6.28 µM	16.6 µM	31.7 µM	0.729 µM	2.61 µM
C=C(CN1CCc2[nH]c3ccc(F)cc3c2C1)c1ccc(C(=O)Nc2ccccc2N)cc1	3.82 µM	14 µM	2.26 µM	5.9 µM	0.6 µM	2.71 µM	0.41 µM	3.53 µM	1.6 µM	4.07 µM	2.22 µM	12.6 µM	0.772 µM	3.82 µM	0.389 µM	3.1 µM	2.14 µM	7.4 µM	0.78 µM	4.75 µM
S=C1SCN(Cc2ccccc2)CN1Cc1ccco1	4.06 µM	15.3 µM	4.75 µM	18.7 µM	6.28 µM	20.7 µM	8.47 µM	26.4 µM	1.67 µM	10.4 µM	5.21 µM	34.9 µM	5.71 µM	32 µM	8.44 µM	23.5 µM	4.09 µM	21.9 µM	4.04 µM	19.3 µM
CC(C)Cc1ccc(C(C)/C=C2\CCC(CN(C)C)C2=O)cc1 (stereo unspecified)		20.5 µM		33.8 µM		30 µM		18 µM		19.6 µM		34 µM		19 µM		32.2 µM		30.8 µM		28.5 µM
CCCCCCCCCCCC[C@@H](O)[C@H]1CC[C@H]([C@H](O)CC[C@H](O)[C@@H]2CC[C@@H](CCCCCCCC3=C[C@H](C)OC3=O)O2)O1	> 50 µM	> 50 µM	> 50 µM	> 50 µM	0.152 µM		8.89 µM	> 50 µM	1.49 µM	> 50 µM	0.164 µM	> 50 µM	6.6 µM	> 50 µM		> 50 µM		> 50 µM	4.99 µM	> 50 µM
CC(=O)NC1C(O[C@H]2C[C@H]3[C@@H]4CC=C5C[C@@H](O)CC[C@]5(C)[C@H]4CC[C@]3(C)[C@H]2[C@H](C)C(=O)CCC(C)C)OCC(O)C1O (stereo partly specified)	8.58 µM	26.6 µM	0.913 µM	2.21 µM	1.4 µM	3.55 µM	3.37 µM	> 42.5 µM	2.06 µM	8.73 µM	4.59 µM	18.5 µM	15.7 µM	> 42.5 µM	2.33 µM	9.78 µM	0.909 µM	10.9 µM	0.732 µM	1.57 µM
